Test results from patent publication US20070027175A1, “Antineoplastic activities of ellipticine and its derivatives” (priority 2005, published 2007).

System: Ark myeloma cell line
Test: CellTiter-Glo luminescent cell viability assay, Ark
Format: cell-based, human
Parameters: unit of the concentration uncertain
Protocol: The dosage of each derivative was set at 2, 0.2 and 0.02 mM. A cell culture medium control and 0.5% DMSO control was maintained in each experiment. The cell viability was tested each day over a period of five days using the CellTiter-Glo luminescent cell viability assay kit from Promega Co.
Cell Titer-Glo luminescent cell viability assay kit from Promega Co (Madison, Wis.) was used to determine cell growth inhibition by the various compounds tested. The kit determines cell viability by quantifying the amount of ATP present in the cell culture medium. Presence of ATP signals the presence of metabolically active cells (3). The intensity of luminescence was measured by a computerized luminometer (Promega, Co. Madison, Wis.). Each well was read five times within 30 minutes of adding Cell Titer-Glo reagent mixture.
Cells were contacted with the antineoplastic agents in ninety six well culture plates. The concentration of each neoplastic agent was maintained a constant. A cell culture medium control and 0.5% DMSO control were maintained in each set of experiments. The cell viability was tested every day using the CellTiter-Glo luminescent cell viability kit from Promega Co. (Madison, Wis.) for a period of five days.

## Cc1c2ccncc2c(C)c2c1[nH]c1ccc(OCCN(C)C)cc12 [NSC 338258, ellipticine, 9-dimethyl amino-ethoxy-]
0.02 (unit uncertain), Day 1
  cell viability (CellTiter-Glo luminescent assay): 99,050
0.02 (unit uncertain), Day 2
  cell viability (CellTiter-Glo luminescent assay): 187,835
0.02 (unit uncertain), Day 3
  cell viability (CellTiter-Glo luminescent assay): 297,927
0.02 (unit uncertain), Day 4
  cell viability (CellTiter-Glo luminescent assay): 764,382
0.02 (unit uncertain), Day 5
  cell viability (CellTiter-Glo luminescent assay): 982,255
0.2 (unit uncertain), Day 1
  cell viability (CellTiter-Glo luminescent assay): 1,085
0.2 (unit uncertain), Day 2
  cell viability (CellTiter-Glo luminescent assay): 489
0.2 (unit uncertain), Day 3
  cell viability (CellTiter-Glo luminescent assay): 384
0.2 (unit uncertain), Day 4
  cell viability (CellTiter-Glo luminescent assay): 530
0.2 (unit uncertain), Day 5
  cell viability (CellTiter-Glo luminescent assay): 376
2 (unit uncertain), Day 1
  cell viability (CellTiter-Glo luminescent assay): 523
2 (unit uncertain), Day 2
  cell viability (CellTiter-Glo luminescent assay): 342
2 (unit uncertain), Day 3
  cell viability (CellTiter-Glo luminescent assay): 366
2 (unit uncertain), Day 4
  cell viability (CellTiter-Glo luminescent assay): 478
2 (unit uncertain), Day 5
  cell viability (CellTiter-Glo luminescent assay): 299
